Where two headings read alike, the source gives them in different places. Each block holds one compound with its values, some of them ahead of it.
Assays:
[1] = Storage stability: appearance, assay/label strength (LS), total impurities/degradation products; assay type: physicochemical; details: for physical and chemical stability: open container, 1 month at 40° C./75% RH
Procedure: In some embodiments, the film-coated tablets were packaged in 75 and 100 mL white HDPE bottles (Lots A and B, respectively, as described in Tables 11A, 11B) with 1 g silica gel desiccant canisters and a polyester fiber coil. The 75 and 100 mL HDPE bottles contained fourteen and twenty eight tablets, respectively. Each HDPE bottle was capped using a white, continuous thread, child-resistant polypropylene screw cap with an […], aluminum-faced line. The packaged tablets (14 and 28 counts) were evaluated for stability at 40° C./75% RH and 25° C./60% RH. Additionally, the 14-count bottles (without cap) were evaluated for stability under open conditions at 40° C./75% RH.
For each of the impact studies, the sofosbuvir/velpatasvir SSD/voxilaprevir SSD tablets were packaged in a designated commercial packaging configuration (28-count, 100 mL HPDE bottle, coil, 1 g desiccant), and stored for 12 weeks at 25° C./60% RH and 40° C./75% RH. Tablets were also packaged in open containers (28-count, 100 mL HPDE bottle without cap) and stored for 4 weeks at 40° C./75% RH and for 1 week at 50° C./92% RH.
The sofosbuvir/velpatasvir SSD/voxilaprevir SSD tablets were packaged in the designated commercial packaging configuration (28-count, 100 mL HPDE bottle, coil, 1 g desiccant), and stored for 6 months at 25° C./60% RH and 40° C./75% RH.

[2] = Photostability (light exposure, ICH Q1B); assay type: physicochemical
Procedure: In some embodiments, and the Examples presented herein, the tablet formulation includes sofosbuvir having Form 6 and, optionally, a trace amount of Form 7.
Tablet cores and film-coated tablets were evaluated per ICH Q1B guidelines with a total of illumination of more than 1.2 million-lux hours and a total irradiance of more than 200 W·hr/m^2.

[3] = Velpatasvir single and multiple oral dose pharmacokinetics; assay type: in vivo, human; details: for concentration at 24 h: human, plasma, oral, 5 mg, mean
Procedure: Following single and multiple oral doses of velpatasvir, maximum plasma concentrations occurred between 1.50 and 3.25 hours (median tmax).

[4] = Tablet dissolution as a function of medium pH and composition (Apparatus II, 75 rpm, 900 mL, 37° C.); assay type: physicochemical; details: Formulation G tablets
BCS classification = assay type: physicochemical
[5] = Tablet dissolution in 50 mM sodium acetate buffer pH 5.0 with 2.0% w/v Polysorbate 80 and 0.001% w/v BHT, 75 rpm, 900 mL, 37° C., USP Type II; assay type: physicochemical; details: for dissolution at 30 minutes: after 4 weeks open at 40° C./75% RH
Hygroscopicity = assay type: physicochemical
From the text: (§1) In some embodiments, and the Examples presented herein, the tablet formulation includes sofosbuvir having Form 6 and, optionally, a trace amount of Form 7. […] Form 6 of sofosbuvir is the thermodynamically stable form and remains physically stable when suspended in water. Form 7 of Sofosbuvir, while physically stable in water for short periods of time, can be converted to Form 6 with prolonged stirring.
Voxilaprevir SSD is hygroscopic, with a reversible weight gain of 11% when cycled between 0% and 90% RH at 25° C.

[6] = Solubility (aqueous, spray-drying solvents); assay type: physicochemical
From the text: as §1
(§2) As described previously, Form VIII of voxilaprevir is characterized by an X-ray powder diffractogram comprising the following peaks (±0.2°): at 7.8, 8.2, and 20.2°2θ, as determined on a diffractometer using Cu-Kα radiation.
The selection of a suitable solvent for the spray drying process was based on (1) the solubility of voxilaprevir EAS, Form II and copovidone in the solvent, (2) the chemical stability of voxilaprevir EAS, Form II in the presence of the solvent, and (3) the impact of the solvent on feed solution properties and particle properties of the resulting solid dispersion. Acetone and dichloromethane were evaluated as solvents for the feed solution because of their low boiling points and the high solubility of voxilaprevir EAS, Form II (>300 mg/mL) in these solvents.

[7] = Oral bioavailability of crystalline voxilaprevir forms in a dog model; details: in vivo, read-out: oral bioavailability, less than that of crystalline Form VI
Procedure: as §2

- total impurities/degradation products ([1]; packaged Formulation G tablets (Tables 11A, 11B), 40° C./75% RH and 25° C./60% RH for 6 months): 0.0%
- total impurities/degradation products ([1]; tablet Lots A-D from sub-potent/super-potent VEL SSD and VOX SSD, all conditions): 0.0%
- total impurities/degradation products ([1]; tablets from SSDs made with high-peroxide copovidone (544 ppm VEL SSD, 655 ppm VOX SSD)): 0.0%
- total impurities/degradation products ([1]; tablets from VEL SSD with 6.0% residual ethanol and VOX SSD with 2.1% residual acetone, all conditions): 0.0%
- total impurities/degradation products ([1]; tablets from VEL SSD with 7.0% and VOX SSD with 3.2% water content, all conditions): 0.0%
- level of degradation products ([2]; tablets film-coated to weight gains of 2.1 to 5.4%, ICH Q1B): 0.4%
- loss after exposure to light ([2]; uncoated tablet cores (Formulation G), ICH Q1B): up to 0.3%
- dose linearity of PK ([3]; dose range of 5 to 450 mg): nonlinear PK
- concentration at 24 h ([3]; multiple dose 5 mg, read-out: Ctau): 2.2 ng/mL
- concentration at 24 h ([3]; single dose 5 mg, read-out: Clast): 1.4 ng/mL
- dissolution at 60 minutes in pH 4.0 and 5.0 containing 2.0% w/v polysorbate 80 [4]: complete dissolution
- dissolution in pH 2.0, 4.5 and 6.8 buffers, FaSSIF and FeSSIF [4]: Incomplete dissolution
- aqueous solubility, pH dependence (BCS classification): pH-dependent solubility
- dissolution at 30 minutes ([5]; SSD potency tablets Lot A): 86%
- dissolution at 30 minutes ([5]; SSD potency tablets Lot B): 91%
- release at 30 minutes ([5]; tablets containing neat amorphous velpatasvir free base (physical mixture with copovidone)): 62%
- release at 30 minutes ([5]; tablets containing velpatasvir SSD): 91%
SMILES: COC[C@H]1C[C@@H](c2ncc(-c3ccc4c(c3)COc3cc5c(ccc6nc([C@@H]7CC[C@H](C)N7C(=O)[C@@H](NC(=O)OC)C(C)C)[nH]c65)cc3-4)[nH]2)N(C(=O)[C@H](NC(=O)OC)c2ccccc2)C1 [Velpatasvir, methyl {(2S)-1-[(2S,5S)-2-(9-{2-[(2S,4S)-1-{(2R)-2-[(methoxycarbonyl)amino]-2-phenylacetyl}-4-(methoxymethyl)pyrrolidin-2-yl]-1H-imidazol-5-yl}-1,11-dihydroisochromeno[4′,3′:6,7]naphtho[1,2-d]imidazol-2-yl)-5-methylpyrrolidin-1-yl]-3-methyl-1-oxobutan-2-yl}carbamate]

SMILES: CC(C)OC(=O)[C@@H](C)N[P@](=O)(OC[C@H]1O[C@@H](n2ccc(=O)[nH]c2=O)[C@](C)(F)[C@@H]1O)Oc1ccccc1 [sofosbuvir Form 6]
- physical and chemical stability [1]: physically and chemically stable
- photosensitivity [2]: not photosensitive
- hygroscopicity (Hygroscopicity): non-hygroscopic
- solubility ([6]; water, 37° C., read-out: aqueous solubility): ≥ 2 mg/mL

- solubility ([6]; acetone and dichloromethane, organic solvent or mixture, read-out: solubility in acetone and dichloromethane): > 300 mg/mL
SMILES: CC[C@@H]1[C@@H]2CN(C(=O)[C@H](C(C)(C)C)NC(=O)O[C@@H]3C[C@H]3CCCCC(F)(F)c3nc4ccc(OC)cc4nc3O2)[C@@H]1C(=O)N[C@]1(C(=O)NS(=O)(=O)C2(C)CC2)C[C@H]1C(F)F [voxilaprevir EAS, Form II]

- bioavailability [7]: ~50%
SMILES: CC[C@@H]1[C@@H]2CN(C(=O)[C@H](C(C)(C)C)NC(=O)O[C@@H]3C[C@H]3CCCCC(F)(F)c3nc4ccc(OC)cc4nc3O2)[C@@H]1C(=O)N[C@]1(C(=O)NS(=O)(=O)C2(C)CC2)C[C@H]1C(F)F [crystalline Form VIII]

SMILES: CC(C)OC(=O)[C@@H](C)N[P@](=O)(OC[C@H]1O[C@@H](n2ccc(=O)[nH]c2=O)[C@](C)(F)[C@@H]1O)Oc1ccccc1 [sofosbuvir Form 7]
- physical and chemical stability [1]: physically and chemically stable
- photosensitivity [2]: not photosensitive
- hygroscopicity (Hygroscopicity): non-hygroscopic

Reference: patent publication US10912814B2, “Combination formulation of three antiviral compounds” (priority 2016, dated 2021)
